# Measurements reported in patent US20130331427A1, “METHODS OF STIMULATING CELLULAR GROWTH, SYNAPTIC, REMODELING AND CONSOLIDATION OF LONG-TERM MEMORY” (Blanchette Rockefeller Neuroscience Institute, priority 2007, published 2013).
# “Also recorded” adds a separate entry of the source.
# Assays:
# [1] = system: dendritic spines; test: dendritic spines of rats trained in a spatial maze task; type: in vivo, rat
# From the text: On retention day 2, confocal microscopy and […] were used to study filopodia and dendritic spines: mushroom, thin and stubby spines (Panel A).
# [2] = system: Hermissenda Crassicornis; test: Pavlovian conditioning of Hermissenda, memory retention; type: in vivo
# Procedure: Specimens of Hermissenda Crassicornis were maintained in artificial sea water (ASW) at 15° for three days in perforated 50-ml conical centrifuge tubes before starting experiments. […] For selected experiments lactacysteine (10 μM) or anisomycin was added to the ASW.
# Pavlovian conditioning of Hermissenda involves repeated pairings of a neutral stimulus, light, with an unconditioned stimulus, orbital shaking. (See, Lederhendler et al. (24) and Epstein et al. (6)). A rotation/shaking stimulus excites the statocyst hair cells and thereby elicits an unconditioned response: a brisk contraction of the muscular undersurface called a foot, accompanied by adherence or “clinging” to the surface that supports the foot. Before conditioning, light elicits a weakly positive phototaxis accompanied by lengthening of the foot. After sufficient light-rotation pairings, light no longer elicits phototaxis, but instead elicits a new response (24): the “clinging” and foot shortening previously elicited only by the unconditional stimulus (FIG. 1). Thus, the meaning of the unconditioned stimulus, rotation or orbital shaking, has been transferred to the conditioned stimulus and is manifested by a light-elicited foot contraction—a negative change of foot length. This conditioned response to light can last for weeks, is not produced by randomized light and rotation, is stimulus-specific, and shares the other defining characteristics of mammalian Pavlovian Conditioning.
# Pavlovian conditioning of Hermissenda has well-defined training parameters that produce progressively longer-lasting retention of the learned conditioned response. Two training events (2 TE) of paired light and orbital shaking (see “Methods”), for example, induce a learned conditioned response (light-elicited foot contraction or shortening) that persists without drug treatment for approximately 7 minutes. Four to six training events (4-6 TE) induce a conditioned response that persists up to several hours, but disappears approximately by 1 day after training. Nine TE produces long-term associative memory lasting many days and often up to two weeks.
# All animals were tested with the CS alone at 4 h, then at 24-h intervals.
# [3] = target: T1, PKCδ (Rattus norvegicus, UniProt P09215); test: acute hippocampal slices, PKCδ activation; type: cell-based
# T1 construct: from tissue; host or cells: hippocampal slices
# T1 sequence (P09215 whole entry): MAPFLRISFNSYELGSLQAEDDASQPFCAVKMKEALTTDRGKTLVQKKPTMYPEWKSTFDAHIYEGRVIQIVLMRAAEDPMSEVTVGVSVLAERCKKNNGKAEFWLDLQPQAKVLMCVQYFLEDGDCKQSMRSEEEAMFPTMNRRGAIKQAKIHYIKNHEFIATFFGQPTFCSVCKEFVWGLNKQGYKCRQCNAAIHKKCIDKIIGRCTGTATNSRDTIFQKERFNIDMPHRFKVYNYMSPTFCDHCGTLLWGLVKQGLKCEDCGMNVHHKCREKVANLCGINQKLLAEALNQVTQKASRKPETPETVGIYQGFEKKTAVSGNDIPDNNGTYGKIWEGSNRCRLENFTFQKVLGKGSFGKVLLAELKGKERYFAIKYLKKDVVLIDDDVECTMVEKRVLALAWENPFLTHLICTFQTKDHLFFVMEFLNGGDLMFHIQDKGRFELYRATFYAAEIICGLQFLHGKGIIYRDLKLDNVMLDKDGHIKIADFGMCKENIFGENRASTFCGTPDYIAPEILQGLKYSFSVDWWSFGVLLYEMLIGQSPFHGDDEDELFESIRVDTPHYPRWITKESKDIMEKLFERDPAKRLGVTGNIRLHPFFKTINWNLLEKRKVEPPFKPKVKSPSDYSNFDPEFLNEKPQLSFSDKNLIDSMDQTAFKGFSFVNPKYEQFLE
# [4] = system: PKC; conditions: cited from earlier work
# [5] = system: Rat IGF-IR cells; test: overall protein synthesis, [35S]methionine incorporation; conditions: single 30-minute exposure to 0.28 nM
# Procedure: [^35S]Methionine (9.1 μCi) was then added to the medium followed by analysis of radiolabel.
# [6] = system: ELAV; test: acute hippocampal slices, nuclear export of ELAV; type: cell-based; conditions: 120-min incubation
# [7] = system: PKC; test: PKC activity (histone phosphorylation) in Hermissenda nervous systems; type: in vivo
# Procedure: (§1) Cells were homogenized by sonication (5 sec, 25 W) in 100 μl of 100 mM Tris-HCL pH 7.4 buffer containing 1 mM EGTA, 1 mM PMSF, and 50 mM NaF. Homogenate was transferred to a polyallomer centrifuge tube and was centrifuged at 100,000×g for 10 min at 4°. The supernatant was removed and immediately frozen on dry ice. The particulate fraction was resuspended by sonication in 100 μl of the same buffer and stored at −80°. To measure PKC, 10 μl of cytosol or particulate fraction was incubated for 15 min at 37° in the presence of 10 μM histones, 4.89 mM CaCl2, 1.2 μg/μl phosphatidyl-L-serine, 0.18 μg/μl 1.2-dioctanoyl-sn-glycerol, 10 mM MgCl2, 20 mM HEPES (pH 7.4), 0-8 mM EDTA, 4 mM EGTA, 4% glycerol, 8 μg/ml aprotinin, 8 μg/ml leupeptin, and 2 mM benzamidine. 0.5 μCi [γ^32-P]ATP was added and ^32P-phosphoprotein formation was measured by adsorption onto phosphocellulose as described previously (25). This assay was used with slight adjustments for either Hermissenda nervous system homogenates or cultured mammalian neuron homogenates.
# Histone phosphorylation (See “Methods”) in isolated circumesophageal nervous systems was then measured in the cytosol fraction. […] (FIG. 12, 13).
# [8] = system: PKC; test: PKC activity in cultured rat hippocampal H19-7/IGF-IR cells; type: cell-based
# Procedure: as §1
# Rat hippocampal H19-7/IGF-IR cells (ATCC) were plated onto poly-L-lysine coated plates and grown at 35° in DMEM/10% FCS for several days until approx. 50% coverage was obtained. The cells were then induced to differentiate into a neuronal phenotype by replacing the medium with 5 ml N2 medium containing 10 ng/ml basic fibroblast growth factor and grown in T-25 flasks at 39° C. (26). […] After a specified interval, the medium was removed and the cells were washed with PBS, removed by gentle scraping, and collected by centrifugation at 1000 rpm for 5 min.
# These differentiate to have a neuronal phenotype when induced by basic fibroblast growth factor in N2 medium (26) and express a normal complement of neuronal proteins, including PKC.
# Both the initial PKC activation and subsequent downregulation have been previously described and were confirmed by measurement of PKC activity in membrane and cytosol.
# [9] = target: T2, PKCα (Rattus norvegicus, UniProt P05696); type: cell-based
# T2 construct: from tissue; host or cells: acute hippocampal slices
# [10] = system: sAPP secretion; test: sAPP secretion with bryostatin-1; type: cell-based; conditions: 0.1 nM
# From the text: Of particular interest are macrocyclic lactones (i.e. bryostatin class and neristatin class) that act to stimulate PKC. […] Bryostatin is currently in clinical trials as an anti-cancer agent. The bryostatins are known to bind to the regulatory domain of PKC and to activate the enzyme. […] (See, for example, WO 97/43268; incorporated herein by reference in its entirety).
# [11] = system: CA1 neurons; test: acute hippocampal slices, number of dendritic spines (spinophilin); type: cell-based; conditions: 0.1 nM, spine marker spinophilin
# [12] = single dose 0.28 nM for 30 minutes
smiles,measurement,setting,value
"CCC/C=C/C=C/C(=O)O[C@H]1/C(=C/C(=O)OC)C[C@H]2C[C@H]([C@@H](C)O)OC(=O)C[C@H](O)C[C@@H]3C[C@H](OC(C)=O)C(C)(C)[C@](O)(C[C@@H]4C/C(=C/C(=O)OC)C[C@H](/C=C/C(C)(C)[C@]1(O)O2)O4)O3 [bryostatin, bryostatin-1]",filopodia or thin spines,[1]; all conditions,no changes
same,number of stubby spines,[1]; bryostatin alone (without training),augmented
same,total numbers of filopodia and (all shape) spines,[1]; only bryostatin,similarly increased
same,water-maze-induced increase in number of mushroom spines,"[1]; retention day 2, training plus bryostatin",enhanced
same,increase in total numbers of filopodia and spines,[1]; water maze rats also treated with bryostatin,enhanced
same,memory retention,"[2]; 2 TE plus bryostatin 0.25 ng/ml for 4 h during and after training, minutes without",lasting hours
same,memory retention,[2]; 4 TEs plus bryostatin 0.25 ng/ml for 4 h,> 24 h
same,retention,"[2]; 20 h pre-exposure 0.25 ng/ml, 4-paired TE, at 48 h",persisted
same,time by which retention was gone,"[2]; 20 hr exposure 0.25 ng/ml, 2-paired TE",≤ 48 h
same,concentration that inhibited acquisition and behavioral retention,[2]; all training conditions tested,greater than 1.0 ng/ml
same,"memory after 2, 4, or 6 training trials",[2]; low doses (0.1-0.25 ng/ml),markedly enhanced memory
same,conditioned response,[2]; randomized presentations of light and rotation,no conditioned response
same,time after which behavioral retention was lost,"[2]; single 4 h exposure 0.25 ng/ml alone, 2-paired TEs 24 hrs later",≤ 24 h
same,concentrations that augment acquisition and memory retention,[2]; sub-optimal (4 TE) training,< 0.50 ng/mL
same,long-term retention (LTR) post-training,"[2]; three successive days of 4-h exposure 0.25 ng/ml, 2-TEs one day later",≥ 96 h
same,long-term retention,"[2]; two successive days of 4-h exposure 0.25 ng/ml, 2-paired TEs",at least 6 days
same,activation of PKCδ,[3],but not PKCδ
same,concentrations that activate PKC,[4],sub-nanomolar
same,increase of overall protein synthesis,[5]; by 79 hours,60%
same,increase of overall protein synthesis,[5]; within 24 h,20%
same,ELAV transport,[6],significantly transported to dendrites
same,"PKC activity, cytosol fraction","[7]; 0.28 nM, 4 hour exposures, 10 minutes and 24 hours after the second of two exposures",significantly increased over baseline levels
same,"PKC activity, membrane fraction",[7]; 24 hours after the second of two exposures,significantly increased over baseline
same,"PKC activity, cytoplasmic fraction",[8]; exposed twice within a 2-hour period,significant reduction
same,membrane-bound PKC downregulation,[8]; second 30-minute exposure after a 2- to 4-hour delay,eliminated the significant downregulation
same,"PKC activity, cytoplasmic fraction",[8]; second exposure 4 hours after the first,increased above baseline
same,membrane-bound PKC after the brief translocation,[8]; [12],prolonged downregulation
same,translocation of PKC from the cytosol to the particulate fraction,[8]; [12],approx 60%
same,"PKC activity, cytoplasmic fraction",[8]; within the first 4 hours after exposure,no significant alteration
same,activation of PKCα,[9],stimulates translocation to the plasma membrane; also recorded: selectively activated
same,sAPP secretion,[10],dramatic increase of sAPP secretion
same,number of dendritic spines,[11],augmented
same,number of dendritic spines,[11]; listed as Bryostatin,increased
